According to patent US11166460B2, “α-amino acrylate microbicide, and preparation method therefor and uses thereof” (priority 2017, dated 2021):
Converted amounts (≈) assume the structure as drawn. Read-outs that look alike come from different tables or passages of the source.

How the values were obtained:
[1] = test system: tobacco mosaic virus (TMV); test: Anti-TMV curative activity (treatment mode), live friction inoculation on tobacco seedlings; type: in vivo; details: Tobacco mosaic virus, read-out: Anti-TMV activity, Curative effect (inhibition), 100 μg/mL, tobacco seedlings, checked on seventh day
[2] = test system: tobacco mosaic virus (TMV); test: Anti-TMV inactivation activity (inactivation mode), compound mixed with TMV before inoculation of tobacco leaves; type: in vivo; details: Tobacco mosaic virus, read-out: Anti-TMV activity, Inactivation effect (inhibition)
[3] = test system: tobacco mosaic virus (TMV); test: Anti-TMV protective activity (protection mode), live friction inoculation on tobacco seedlings; type: in vivo; details: Tobacco mosaic virus, read-out: Anti-TMV activity, Protection effect (inhibition)
[4] = test system: tobacco mosaic virus (TMV); test: Anti-TMV inducing activity (induction mode), tobacco seedlings; type: in vivo; details: Tobacco mosaic virus, read-out: Anti-TMV activity, Induction effect (inhibition), 100 μg/mL, tobacco seedlings
Alternaria solani = test: Fungicidal activity, fungi growth rate method, AS; type: cell-based; details: Alternaria solani, 50 μg/mL
Botrytis cinerea = test: Fungicidal activity, fungi growth rate method, BC; type: cell-based; details: Botrytis cinerea, 50 μg/mL
Cercospora arachidicola = test: Fungicidal activity, fungi growth rate method, CA; type: cell-based; details: Mycosphaerella arachidis, 50 μg/mL
wheat Gibberella zeae = test: microbe, parasite or virus in culture; type: cell-based; details: Fusarium graminearum
[5] = test system: Phytophthora infestans (Mont) de Bary; test: microbe, parasite or virus in culture; type: cell-based; details: Phytophthora infestans
Physalospora piricola = test: Fungicidal activity, fungi growth rate method, PP; type: cell-based; details: 50 μg/mL
Pellicularia sasakii = test: Fungicidal activity, fungi growth rate method, PS; type: cell-based; details: 50 μg/mL
Rhizoctonia cerealis = test: Fungicidal activity, fungi growth rate method, RC; type: cell-based; details: Ceratobasidium cereale, 50 μg/mL
Sclerotinia sclerotiorum = test: microbe, parasite or virus in culture; type: cell-based; details: Sclerotinia sclerotiorum; for inhibition at 50 µg/mL: 50 μg/mL; for EC90: read-out: EC90 against S. sclerotiorum in vitro
[6] = read-out: Fungicidal activity, inhibition, AS
[7] = read-out: Fungicidal activity, inhibition, BC
[8] = read-out: Fungicidal activity, inhibition, CA
[9] = read-out: Fungicidal activity, inhibition, GZ
[10] = read-out: Fungicidal activity, inhibition, PI
[11] = read-out: Fungicidal activity, inhibition, PP
[12] = read-out: Fungicidal activity, inhibition, PS
[13] = read-out: Fungicidal activity, inhibition, RC
[14] = read-out: Fungicidal activity (inhibition) against SS: Sclerotinia sclerotiorum
[15] = read-out: Fungicidal activity, inhibition, SS
[16] = read-out: Fungicidal activity (inhibition) against AS: Alternaria solani
[17] = read-out: Fungicidal activity (inhibition) against BC: Botrytis cinerea
[18] = read-out: Fungicidal activity (inhibition) against CA: Cercospora arachidicola
[19] = read-out: Fungicidal activity (inhibition) against PI: Phytophthora infestans (Mont) de Bary
[20] = read-out: Fungicidal activity (inhibition) against PP: Physalospora piricola
[21] = read-out: Fungicidal activity (inhibition) against PS: Pellicularia sasakii
[22] = read-out: Fungicidal activity (inhibition) against RC: Rhizoctonia cerealis

| SMILES | inhibition at 100 µg/mL [1] | inhibition at 100 µg/mL [2] | inhibition at 100 µg/mL [3] | inhibition at 100 µg/mL [4] | inhibition at 50 µg/mL (Alternaria solani; [6]) | inhibition at 50 µg/mL (Botrytis cinerea; [7]) | inhibition at 50 µg/mL (Cercospora arachidicola; [8]) | inhibition at 50 µg/mL (wheat Gibberella zeae; [9]) | inhibition at 50 µg/mL [5, 10] | inhibition at 50 µg/mL (Physalospora piricola; [11]) | inhibition at 50 µg/mL (Pellicularia sasakii; [12]) | inhibition at 50 µg/mL (Rhizoctonia cerealis; [13]) | inhibition at 50 µg/mL (Sclerotinia sclerotiorum; [14]) | inhibition at 50 µg/mL (Sclerotinia sclerotiorum; [15]) | melting point | inhibition at 50 µg/mL (Botrytis cinerea; [17]) | inhibition at 50 µg/mL (Cercospora arachidicola; [18]) | inhibition at 50 µg/mL [5, 19] | inhibition at 50 µg/mL (Physalospora piricola; [20]) | inhibition at 50 µg/mL (Pellicularia sasakii; [21]) | also measured |
| --- | --- | --- | --- | --- | --- | --- | --- | --- | --- | --- | --- | --- | --- | --- | --- | --- | --- | --- | --- | --- | --- |
| O=C(N/C(=C\c1ccccc1)C(=O)N1CCC(O)(c2ccc(Br)cc2)CC1)c1cccs1 [Compound 14, (Z)-N-[1-[[4-(4-bromophenyl)-4-hydroxy-1-piperidinyl]carbonyl]-2-phenylethenyl]-2-thiophenecarboxamide] | 39% | 30% | 34% | 52% | 17% | 24% | 7% | 7% | 5% | 0% | 3% | 8% | 80 to 95% | 83% | 134 to 136 °C |  |  |  |  |  |  |
| CC(C)(C)OC(=O)N1CCC(C(=O)N/C(=C\c2ccccc2)C(=O)N2CCC(O)(c3ccc(Br)cc3)CC2)CC1 [Compound 3, (Z)-N-[1-[[4-(4-bromophenyl)-4-hydroxy-1-piperidinyl]carbonyl]-2-phenylethenyl]-1-Boc-piperidine-4-carboxamide] | 59% | 14% | 51% | 0% | 32% | 24% | 25% | 34% | 19% | 21% | 23% | 26% | 60 to 80% | 75% | 145 to 147 °C |  |  |  |  |  |  |
| CONC(=O)/C(=C/c1csc(C2CCN(C(=O)OC(C)(C)C)CC2)n1)NC(=O)c1ccccc1 [Compound 42, (Z)-N-[1-[(methoxylamino)carbonyl]-2-[4-[2-[4-(1-Boc-piperidine)]thiazol]]ethenyl]benzamide] | 0% | 0% | 41% | 20% | 63% | 53% | 44% | 42% | 44% | 44% | 43% | 45% |  | 93% | 111 to 113 °C | 53% | 44% | 44% | 44% | 43% | inhibition at 50 µg/mL (Alternaria solani; [16]): 63%; inhibition at 50 µg/mL (Rhizoctonia cerealis; [22]): 45%; EC90 (Sclerotinia sclerotiorum): 155 µg/mL (≈ 318 µM) |
| O=C(OCc1ccc(Br)cc1)/C(=C/c1ccccc1)NC(=O)c1ccccc1 [Compound 61, N-[(1Z)-2-phenyl-1-[(4-bromophenymethoxyl)carbonyl]ethenyl]benzamide] | 0% | 13% | 16% | 0% | 25% | 18% | 12% | 29% | 11% | 6% | 9% | 13% |  | 44% | 168 to 170 °C |  |  |  |  |  |  |
| O=C(NC(Cc1ccccc1)C(=O)N1CCC(O)(c2ccc(Br)cc2)CC1)C1CCCCC1 (stereo not drawn) [Compound 50, N-[1-[[4-(4-bromophenyl)-4-hydroxy-1-piperidinyl]carbonyl]-2-phenylethyl]cyclohexanecarboxamide] | 37% | 34% | 47% | 34% | 29% | 29% | 26% | 29% | 26% | 18% | 20% | 23% |  | 50% | 200 to 202 °C |  |  |  |  |  |  |
| O=C(NCc1ccccc1)/C(=C/c1ccccc1)NC(=O)c1ccccc1 [Compound 53, N-[(1Z)-2-phenyl-1-[[(phenylmethyl)amino]carbonyl]ethenyl]benzamide] | 55% | 58% | 33% | 0% | 16% | 16% | 18% | 23% | 5% | 13% | 8% | 5% | 75% | 75% | 169 to 171 °C | ≤ 20% | < 25% | < 25% | < 20% | < 30% | inhibition at 50 µg/mL (Alternaria solani; [16]): < 30%; inhibition at 50 µg/mL (wheat Gibberella zeae; read-out: Fungicidal activity (inhibition) against GZ: wheat Gibberella zeae): < 45%; inhibition at 50 µg/mL (Rhizoctonia cerealis; [22]): < 20% |
| O=C(N/C(=C\c1ccccc1)C(=O)N1CCC(O)(c2ccc(Br)cc2)CC1)c1ccc(F)cc1 [Compound 6, (Z)-N-[1-[[4-(4-bromophenyl)-4-hydroxy-1-piperidinyl]carbonyl]-2-phenylethenyl]-4-fluorobenzamide] | 15% | 50% | 45% | 6% | 31% | 48% | 49% | 44% | 50% | 49% | 54% | 51% |  | 96% | 129 to 130 °C | 48% | 49% | 50% | 49% | 54% | EC90 (Sclerotinia sclerotiorum): 218 µg/mL (≈ 416 µM) |
